One molecule from patent publication US10456365B2, “Methods and formulations for supporting and promoting bone health” (Primus Pharmaceuticals, Inc., priority 2016, dated 2019) can be followed below.

Structures are written as SMILES.

What all share (assay type): cell-based, mouse (C57BL/6)
Assay [1] deals with osteoblastic mineralization. Nature of the assay: Mineralization in bone marrow culture. The procedure: C57BL/6 cells were prepared as 1×10^6/ml per well in 12-well plates. Cells were cultured in either the presence or absence of DMEM with mineralization medium containing ascorbic acid (100 μg/ml) and 4 mM β-glycerophosphate in DMEM with 10% FBS and 1% penicillin-steptomycin. […] After culture, the cells were washed and stained. After elution with 10% cetylpyridinium chloride solution, the absorbance at 570 nm on a microtiter plate reader.

The subject of assay [2] is differentiation of bone marrow cells to adipocytes. Description: Adipogenesis in bone marrow cell culture. The procedure:
C57BL/6 cells were prepared as 1×10^6/ml per well. These cells were cultured using 12-well plates in DMEM containing 10% FBS, 1% penicillin-steptomycin in the presence or absence of dexamethasone (1 μM/ml) and 3-isobutyl-q-methylxanthine (0.5 mM/ml) with either vehicle or β-Caryophyllene (0.1-100 μM). Medium was replaced containing insulin (10 μg/ml) without dexamethasone and 3-isobutyl-q-methylxanthine, with either the presence or absence of β-Caryophyllene (0.1-100 μM) for four days in CO2 incubator (37° C.). In other experiments, the cells were cultured without β-Caryophyllene for an additional four days. After culture, the adipocytes were stained and counted.
Bone marrow cells (1×10^6 cells/well/ml in 12-well plates) were cultured for 3 days in DMEM containing 10% FBS, 1% penicillin-streptomycin (P/S; 10,000 U/L) in the presence or absence of the differentiation medium (DM) [dexamethasone (1 μM/ml of medium) and 3-isobutyl-1-methylxanthine (IBMX; 0.5 mM/ml of medium)] with either vehicle or β-caryophyllene (0.1-100 μM). […] After culture, the medium was removed, and adipocytes were stained with Oil Red O. Adipocytes were counted by light microscopy. For quantification, the dye was extracted with 0.2 ml of isopropanol for 1 minute, and the absorbance (490 nm) was read using a Spectra Count microplate photometer.

The subject of a further assay is osteoclastogenesis. Nature of the assay: Osteoclastogenesis in bone marrow cell culture. The procedure:
C57BL/6 cells were prepared as 2×10^5/ml per well in 24-well plates. Cells were cultured in DMEM with 10% FBS and 1% penicillin-steptomycin in water-saturated atmosphere containing 5% CO2 and 95% air at 37° C. Cells were cultured with or without Tumor necrosis factor-α (5 ng/ml) for 3 days in the presence or absence of β-Caryophyllene (0.1-100 μM). Medium was replaced and cultures were maintained for an additional 4 days. In other experiments, the cells were cultured for 3 days and then placed in medium without β-Caryophyllene for an additional 4 days. Cells were stained with a marker enzyme of osteoclasts and washed with phosphate buffered sale solution and foxed with 10% neutralized formalin-phosphate for 10 minutes. The cells were stained with TRACP staining and incubated for 90 minutes. TRACP—positive cells containing three or more nuclei were counted as osteoclast-like cells.

In the case of `C=C1CC/C=C(\C)CC[C@@H]2[C@@H]1CC2(C)C` [β-Caryophyllene], the osteoblastic mineralization result is reported as “stimulated osteoblastic mineralization” in assay [1] (18 days, mineralization medium) and “Stimulation was also seen” in assay [1] (β-Caryophyllene for 7 days, then medium without it for additional 11 days). The “differentiation of bone marrow cells to adipocytes” value in assay [2] (0.1-100 μM, 7 days, differentiation medium with or without insulin (FIG. 1)) was “suppressed differentiation of from bone marrow cells to adipocytes”; in assay [2] (C57BL/6 cells cultured for 7 days with or without β-Caryophyllene), “suppressed differentiation of bone marrow cells to adipocytes”. Further, the osteoclastogenesis result is “suppressed osteoclastogenesis” with osteoclastogenesis (7 days, medium containing Tumor necrosis factor-α) and “also exhibited suppression of osteoclastogenesis” in the assay on osteoclastogenesis (cultured in Tumor necrosis factor-α with β-Caryophyllene, then without β-Caryophyllene for additional 4 days).
